Measured values from US8901118B2, “Compounds and methods for kinase modulation, and indications therefor” (Plexxikon Inc., priority 2010, dated 2014).

Assay: Relative solubility by turbidity in aqueous buffers (pH 1.5, 4.5, 6.8, 7.4)
Assay type: physicochemical
Conditions: for turbidity threshold (L, M, H) 1.4: pH 1.5 (SGF); for turbidity threshold (L, M, H) 4.5: pH 4.5 (SIF); for turbidity threshold (L, M, H) 6.8: pH 6.8 (SIF); for turbidity threshold (L, M, H) 7.4: pH 7.4 (HEPES)
Summary of the method: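 Twofold DMSO dilutions of a 25 mM stock were spiked into SGF (0.5M NaCl, pH 1.5), SIF (0.05M NaH2PO4, pH 4.5 and 6.8) or HEPES buffer (10 mM HEPES, 150 mM NaCl, pH 7.4). Absorbance was read at 490, 535 and 650 nm. The endpoint is the concentration crossing O.D. 0.01, averaged across wavelengths.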

SMILES: Clc1cnc2[nH]cc(Cc3cnc(NC4CCCCC4)nc3)c2c1 [Compound P-3001, [5-(5-chloro-1H-pyrrolo[2,3-b]pyridin-3-ylmethyl)-pyrimidin-2-yl]-cyclohexyl-amine]
- turbidity threshold (L, M, H) 1.4: H (high solubility if the threshold concentration is >250 μm)
- turbidity threshold (L, M, H) 4.5: L (low solubility if the threshold concentration is <31.3 μM)
- turbidity threshold (L, M, H) 6.8: L (low solubility if the threshold concentration is <31.3 μM)
- turbidity threshold (L, M, H) 7.4: L (low solubility if the threshold concentration is <31.3 μM)

SMILES: CCn1cc(Nc2ccc(Cc3c[nH]c4ncnc(OC)c34)c(F)n2)cn1 [Compound P-4011, (1-Ethyl-1H-pyrazol-4-yl)-[6-fluoro-5-(4-methoxy-7H-pyrrolo[2,3-d]pyrimidin-5-ylmethyl)-pyridin-2-yl]-amine]
- turbidity threshold (L, M, H) 1.4: M (moderate solubility if the threshold concentration is 31.3 μM to 250 μM)
- turbidity threshold (L, M, H) 4.5: M (moderate solubility if the threshold concentration is 31.3 μM to 250 μM)
- turbidity threshold (L, M, H) 6.8: M (moderate solubility if the threshold concentration is 31.3 μM to 250 μM)
- turbidity threshold (L, M, H) 7.4: M (moderate solubility if the threshold concentration is 31.3 μM to 250 μM)

SMILES: Cc1cnc2[nH]cc(Cc3cnc(Nc4ccc(C(F)(F)F)nc4)nc3)c2c1 [Compound P-3018, [5-(5-Methyl-1H-pyrrolo[2,3-b]pyridin-3-ylmethyl)-pyrimidin-2-yl]-(6-trifluoromethyl-pyridin-3-yl)-amine]
- turbidity threshold (L, M, H) 1.4: H (high solubility if the threshold concentration is >250 μm)
- turbidity threshold (L, M, H) 4.5: M (moderate solubility if the threshold concentration is 31.3 μM to 250 μM)
- turbidity threshold (L, M, H) 6.8: M (moderate solubility if the threshold concentration is 31.3 μM to 250 μM)
- turbidity threshold (L, M, H) 7.4: M (moderate solubility if the threshold concentration is 31.3 μM to 250 μM)

SMILES: CCOc1ccc(Nc2ccc(Cc3c[nH]c4ncc(C)cc34)c(F)n2)cn1 [Compound P-3039, (6-ethoxy-pyridin-3-yl)-[6-fluoro-5-(5-methyl-1H-pyrrolo[2,3-b]pyridin-3-ylmethyl)-pyridin-2-yl]-amine]
- turbidity threshold (L, M, H) 1.4: H (high solubility if the threshold concentration is >250 μm)
- turbidity threshold (L, M, H) 4.5: M (moderate solubility if the threshold concentration is 31.3 μM to 250 μM)
- turbidity threshold (L, M, H) 6.8: M (moderate solubility if the threshold concentration is 31.3 μM to 250 μM)
- turbidity threshold (L, M, H) 7.4: M (moderate solubility if the threshold concentration is 31.3 μM to 250 μM)

SMILES: CCOc1ccc(Nc2ccc(Cc3c[nH]c4ncnc(OCCOC)c34)c(F)n2)cn1 [Compound P-4008, (6-Ethoxy-pyridin-3-yl)-{6-fluoro-5-[4-(2-methoxy-ethoxy)-7H-pyrrolo[2,3-d]pyrimidin-5-ylmethyl]-pyridin-2-yl}-amine]
- turbidity threshold (L, M, H) 1.4: M (moderate solubility if the threshold concentration is 31.3 μM to 250 μM)
- turbidity threshold (L, M, H) 4.5: M (moderate solubility if the threshold concentration is 31.3 μM to 250 μM)
- turbidity threshold (L, M, H) 6.8: M (moderate solubility if the threshold concentration is 31.3 μM to 250 μM)
- turbidity threshold (L, M, H) 7.4: M (moderate solubility if the threshold concentration is 31.3 μM to 250 μM)

SMILES: Cc1ccc(Nc2ccc(C(=O)c3c[nH]c4ncc(Cl)cc34)c(F)n2)cn1 [Compound P-3044, (5-Chloro-1H-pyrrolo[2,3-b]pyridin-3-yl)-[2-fluoro-6-(6-methyl-pyridin-3-ylamino)-pyridin-3-yl]-methanone]
- turbidity threshold (L, M, H) 1.4: L (low solubility if the threshold concentration is <31.3 μM)
- turbidity threshold (L, M, H) 4.5: L (low solubility if the threshold concentration is <31.3 μM)
- turbidity threshold (L, M, H) 6.8: L (low solubility if the threshold concentration is <31.3 μM)
- turbidity threshold (L, M, H) 7.4: M (moderate solubility if the threshold concentration is 31.3 μM to 250 μM)

SMILES: COc1ccc(Nc2ccc(C(=O)c3c[nH]c4ncc(C)cc34)c(F)n2)cn1 [Compound P-3040, [2-Fluoro-6-(6-methoxy-pyridin-3-ylamino)-pyridin-3-yl]-(5-methyl-1H-pyrrolo[2,3-b]pyridin-3-yl)-methanone]
- turbidity threshold (L, M, H) 1.4: M (moderate solubility if the threshold concentration is 31.3 μM to 250 μM)
- turbidity threshold (L, M, H) 4.5: M (moderate solubility if the threshold concentration is 31.3 μM to 250 μM)
- turbidity threshold (L, M, H) 6.8: M (moderate solubility if the threshold concentration is 31.3 μM to 250 μM)
- turbidity threshold (L, M, H) 7.4: M (moderate solubility if the threshold concentration is 31.3 μM to 250 μM)

SMILES: COCCOc1ncnc2[nH]cc(Cc3ccc(Nc4ccc(C)nc4)nc3F)c12 [Compound P-4015, {6-Fluoro-5-[4-(2-methoxy-ethoxy)-7H-pyrrolo[2,3-d]pyrimidin-5-ylmethyl]-pyridin-2-yl}-(6-methyl-pyridin-3-yl)-amine]
- turbidity threshold (L, M, H) 1.4: M (moderate solubility if the threshold concentration is 31.3 μM to 250 μM)
- turbidity threshold (L, M, H) 4.5: M (moderate solubility if the threshold concentration is 31.3 μM to 250 μM)
- turbidity threshold (L, M, H) 6.8: M (moderate solubility if the threshold concentration is 31.3 μM to 250 μM)
- turbidity threshold (L, M, H) 7.4: M (moderate solubility if the threshold concentration is 31.3 μM to 250 μM)

SMILES: CCn1cc(Nc2ccc(Cc3c[nH]c4ncnc(C)c34)c(F)n2)cn1 [Compound P-4013, (1-Ethyl-1H-pyrazol-4-yl)-[6-fluoro-5-(4-methyl-7H-pyrrolo[2,3-d]pyrimidin-5-ylmethyl)-pyridin-2-yl]-amine]
- turbidity threshold (L, M, H) 1.4: H (high solubility if the threshold concentration is >250 μm)
- turbidity threshold (L, M, H) 4.5: M (moderate solubility if the threshold concentration is 31.3 μM to 250 μM)
- turbidity threshold (L, M, H) 6.8: M (moderate solubility if the threshold concentration is 31.3 μM to 250 μM)
- turbidity threshold (L, M, H) 7.4: M (moderate solubility if the threshold concentration is 31.3 μM to 250 μM)

SMILES: CCn1cc(Nc2ccc(Cc3c[nH]c4ncnc(C5CC5)c34)c(F)n2)cn1 [Compound P-4036, [5-(4-Cyclopropyl-7H-pyrrolo[2,3-d]pyrimidin-5-ylmethyl)-6-fluoro-pyridin-2-yl]-(1-ethyl-1H-pyrazol-4-yl)-amine]
- turbidity threshold (L, M, H) 1.4: H (high solubility if the threshold concentration is >250 μm)
- turbidity threshold (L, M, H) 4.5: M (moderate solubility if the threshold concentration is 31.3 μM to 250 μM)
- turbidity threshold (L, M, H) 6.8: L (low solubility if the threshold concentration is <31.3 μM)
- turbidity threshold (L, M, H) 7.4: L (low solubility if the threshold concentration is <31.3 μM)

SMILES: CCn1cc(Nc2ccc(C(=O)c3c[nH]c4ncnc(C5CC5)c34)c(F)n2)cn1 [Compound P-4037, (4-Cyclopropyl-7H-pyrrolo[2,3-d]pyrimidin-5-yl)-[6-(1-ethyl-1H-pyrazol-4-ylamino)-2-fluoro-pyridin-3-yl]-methanone]
- turbidity threshold (L, M, H) 1.4: H (high solubility if the threshold concentration is >250 μm)
- turbidity threshold (L, M, H) 4.5: M (moderate solubility if the threshold concentration is 31.3 μM to 250 μM)
- turbidity threshold (L, M, H) 6.8: M (moderate solubility if the threshold concentration is 31.3 μM to 250 μM)
- turbidity threshold (L, M, H) 7.4: M (moderate solubility if the threshold concentration is 31.3 μM to 250 μM)

SMILES: CCc1ccc(Nc2ccc(Cc3c[nH]c4ncnc(C)c34)c(F)n2)cn1 [Compound P-4009, (6-Ethyl-pyridin-3-yl)-[6-fluoro-5-(4-methyl-7H-pyrrolo[2,3-d]pyrimidin-5-ylmethyl)-pyridin-2-yl]-amine]
- turbidity threshold (L, M, H) 1.4: H (high solubility if the threshold concentration is >250 μm)
- turbidity threshold (L, M, H) 4.5: M (moderate solubility if the threshold concentration is 31.3 μM to 250 μM)
- turbidity threshold (L, M, H) 6.8: L (low solubility if the threshold concentration is <31.3 μM)
- turbidity threshold (L, M, H) 7.4: L (low solubility if the threshold concentration is <31.3 μM)

SMILES: COc1ncnc2[nH]cc(Cc3ccc(Nc4ccc(C)nc4)nc3F)c12 [Compound P-4010, [6-Fluoro-5-(4-methoxy-7H-pyrrolo[2,3-d]pyrimidin-5-ylmethyl)-pyridin-2-yl]-(6-methyl-pyridin-3-yl)-amine]
- turbidity threshold (L, M, H) 1.4: H (high solubility if the threshold concentration is >250 μm)
- turbidity threshold (L, M, H) 4.5: M (moderate solubility if the threshold concentration is 31.3 μM to 250 μM)
- turbidity threshold (L, M, H) 6.8: L (low solubility if the threshold concentration is <31.3 μM)
- turbidity threshold (L, M, H) 7.4: L (low solubility if the threshold concentration is <31.3 μM)

SMILES: CCOc1ccc(Nc2ccc(C(=O)c3c[nH]c4ncnc(OC)c34)c(F)n2)cn1 [Compound P-4024, [6-(6-Ethoxy-pyridin-3-ylamino)-2-fluoro-pyridin-3-yl]-(4-methoxy-7H-pyrrolo[2,3-d]pyrimidin-5-yl)-methanone]
- turbidity threshold (L, M, H) 1.4: M (moderate solubility if the threshold concentration is 31.3 μM to 250 μM)
- turbidity threshold (L, M, H) 4.5: L (low solubility if the threshold concentration is <31.3 μM)
- turbidity threshold (L, M, H) 6.8: M (moderate solubility if the threshold concentration is 31.3 μM to 250 μM)
- turbidity threshold (L, M, H) 7.4: M (moderate solubility if the threshold concentration is 31.3 μM to 250 μM)

SMILES: COCCOc1ncnc2[nH]cc(Cc3ccc(Nc4ccc(OC)nc4)nc3F)c12 [Compound P-4019, {6-Fluoro-5-[4-(2-methoxy-ethoxy)-7H-pyrrolo[2,3-d]pyrimidin-5-ylmethyl]-pyridin-2-yl}-(6-methoxy-pyridin-3-yl)-amine]
- turbidity threshold (L, M, H) 1.4: M (moderate solubility if the threshold concentration is 31.3 μM to 250 μM)
- turbidity threshold (L, M, H) 4.5: L (low solubility if the threshold concentration is <31.3 μM)
- turbidity threshold (L, M, H) 6.8: L (low solubility if the threshold concentration is <31.3 μM)
- turbidity threshold (L, M, H) 7.4: L (low solubility if the threshold concentration is <31.3 μM)
